IC50 data for 36 compounds are collected here from patent publication US6093732A, “4-hydroxyquinoline-3-carboxamides and hydrazides as antiviral agents” (Pharmacia & Upjohn Company, priority 1998, dated 2000).

Where only a bound is given, the exact number is not on record here.

T1 sequence (P08546 whole entry): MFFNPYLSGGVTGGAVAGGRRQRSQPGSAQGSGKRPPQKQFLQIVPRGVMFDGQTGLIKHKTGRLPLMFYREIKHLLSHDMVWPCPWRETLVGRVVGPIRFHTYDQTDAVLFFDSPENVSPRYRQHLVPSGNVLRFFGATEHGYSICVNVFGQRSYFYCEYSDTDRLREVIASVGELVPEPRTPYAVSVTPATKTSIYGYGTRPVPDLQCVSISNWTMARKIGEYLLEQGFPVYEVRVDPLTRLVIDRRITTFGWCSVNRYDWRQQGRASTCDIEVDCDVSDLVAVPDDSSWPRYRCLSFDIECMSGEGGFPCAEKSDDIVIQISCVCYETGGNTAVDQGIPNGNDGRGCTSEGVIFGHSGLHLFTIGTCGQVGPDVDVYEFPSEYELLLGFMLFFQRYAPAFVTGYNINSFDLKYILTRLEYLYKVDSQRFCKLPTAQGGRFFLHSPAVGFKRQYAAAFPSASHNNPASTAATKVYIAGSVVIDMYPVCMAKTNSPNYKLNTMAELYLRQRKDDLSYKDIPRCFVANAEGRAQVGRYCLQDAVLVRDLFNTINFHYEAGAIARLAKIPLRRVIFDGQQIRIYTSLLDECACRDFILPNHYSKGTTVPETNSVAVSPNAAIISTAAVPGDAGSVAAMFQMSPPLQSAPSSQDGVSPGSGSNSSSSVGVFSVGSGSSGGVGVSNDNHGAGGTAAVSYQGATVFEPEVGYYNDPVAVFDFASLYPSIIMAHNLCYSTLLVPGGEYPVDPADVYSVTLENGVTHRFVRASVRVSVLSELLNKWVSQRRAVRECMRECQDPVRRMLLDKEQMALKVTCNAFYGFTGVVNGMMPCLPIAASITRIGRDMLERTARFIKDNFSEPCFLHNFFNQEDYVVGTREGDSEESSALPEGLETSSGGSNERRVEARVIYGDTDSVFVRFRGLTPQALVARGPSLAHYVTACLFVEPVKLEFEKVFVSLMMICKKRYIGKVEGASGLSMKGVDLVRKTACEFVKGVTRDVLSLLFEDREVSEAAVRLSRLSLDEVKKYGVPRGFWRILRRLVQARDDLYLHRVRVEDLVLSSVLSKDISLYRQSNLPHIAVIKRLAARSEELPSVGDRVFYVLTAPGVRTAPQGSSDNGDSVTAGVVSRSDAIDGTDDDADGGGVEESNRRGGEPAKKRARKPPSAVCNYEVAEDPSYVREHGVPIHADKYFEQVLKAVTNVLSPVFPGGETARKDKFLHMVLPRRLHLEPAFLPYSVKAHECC

This experiment has as its target T1, HCMV polymerase (Human cytomegalovirus, UniProt P08546).
T1 construct: made in house; host or cells: recombinant baculovirus-infected SF-9 cells
In words: HCMV polymerase scintillation proximity assay (SPA), modified version. The note with it: CMV polymerase; Table 1; modified assay with 4.5 mM DTT, compounds in 100% DMSO; read-out: Antiviral Selective Polymerase IC50 Values, CMV. It counts as biochemical. An outline of the steps: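 Recombinant polymerase (baculovirus/SF-9) in 5.4 mM HEPES pH 7.5, 11.7 mM KCl, 4.5 mM MgCl2, 0.36 mg/ml BSA, 90 nM 3H-dTTP, ±2 mM CHAPS; started with 6 nM biotinylated poly(dA)-oligo(dT), 25° C or 37° C, EDTA-stopped in linear range (30 min for HCMV). Streptavidin-SPA read; IC50 by linear regression. Modified version: 100% DMSO compound dilution, 4.5 mM DTT added.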
For orientation: Scintillation proximity formats need no separation of bound from free tracer.
As for `O=C(NCc1ccc(Cl)cc1)c1cnc2c(F)cc(S(=O)(=O)Nc3ccccn3)cc2c1O` [Example 200, N-(4-Chlorobenzyl)-8-fluoro-4-hydroxy-6-[(2-pyridinylamino)-sulfonyl]-3-quinolinecarboxamide], the IC50 – broadly, the point on the concentration scale where inhibition reaches its midpoint – stood at 38.8 µM.

For the compound `O=C(NCc1ccc(Cl)cc1)c1cnc2cc(C#CCO)ccc2c1O` [Example 101, N-(4-Chlorobenzyl)-4-hydroxy-7-(3-hydroxy-1-propynyl)-3-quinolinecarboxamide], the IC50 stood at 25.8 µM.

Take `O=C(NCc1ccc(Cl)cc1)c1cnc2cccc(C(F)(F)F)c2c1O` [Example 76, N-((4-Chlorophenyl)methyl)-4-hydroxy-5-trifluoromethyl-3-quinolinecarboxamide]: the IC50 is 5.2 µM.

Consider `CC(C)C(NC(=O)OC(C)(C)C)C(=O)OCCCc1cc(F)c2ncc(C(=O)NCc3ccc(Cl)cc3)c(O)c2c1` (stereo not drawn) [Example 146, 3-(3-{[(4-Chlorobenzyl)amino]carbonyl}-8-fluoro-4-hydroxy-6-quinolinyl)propyl 2-[(tert-butoxycarbonyl)amino]-3-methylbutanoate], for which the IC50 was determined as 38.7 µM.

Consider `C#CCNS(=O)(=O)c1cc(F)c2ncc(C(=O)NCc3ccc(Cl)cc3)c(O)c2c1` [Example 232, N-(4-chlorobenzyl)-8-fluoro-4-hydroxy-6-[(2-propynylamino)sulfonyl]-3-quinolinecarboxamide], for which the IC50 was 23.4 µM.

Regarding `O=C(NCc1ccc(Cl)cc1)c1cnc2c(F)cc(S(=O)(=O)NCc3ccccn3)cc2c1O` [Example 216, N-(4-chlorobenzyl)-8-fluoro-4-hydroxy-6-{[(2-pyridinylmethyl)amino]sulfonyl}-3-quinolinecarboxamide], the IC50 amounted to 18.7 µM.

Turning to `COC(=O)c1ccc2ncc(C(=O)NCc3ccc(Cl)cc3)c(O)c2c1` [Example 165, Methyl 3-{[(4-chlorobenzyl)amino]carbonyl}-4-hydroxy-6-quinolinecarboxylate], the IC50 came to 6.7 µM.

With `Cc1cc(F)c2ncc(C(=O)NNc3ccc(Cl)cc3)c(O)c2c1` [Example 55, 8-Fluoro-4-hydroxy-6-methyl-3-quinolinecarboxylic acid 2-(4-chlorophenyl)hydrazide], the IC50 was found to be 5 µM.

`Cc1cc(Cl)cc2c(O)c(C(=O)NCc3ccc(Cl)cc3)cnc12` [Example 167, 6-Chloro-N-[(4-chlorophenyl)methyl]-4-hydroxy-8-methyl-3-quinolinecarboxamide]: the IC50 stood at 5 µM.

In the case of `CN(CCCc1cc(F)c2ncc(C(=O)NCc3ccc(Cl)cc3)c(O)c2c1)Cc1ccccc1` [Example 108, 6-{3-[Benzyl(methyl)amino]propyl}-N-(4-chlorobenzyl)-8-fluoro-4-hydroxy-3-quinolinecarboxamide], the IC50 was 6.5 µM.

Turning to `O=C(NCc1ccc(Cl)cc1)c1cnc2c(F)cc(S(=O)(=O)NCc3ccco3)cc2c1O` [Example 204, N-(4-chlorobenzyl)-8-fluoro-6-{[(2-furylmethyl)amino]sulfonyl}-4-hydroxy-3-quinolinecarboxamide], the IC50 came out at 13.8 µM.

For the compound `O=C(NCc1ccc(Cl)cc1)c1cnc2c(C(F)(F)F)cc(C#CCO)cc2c1O` [Example 121, N-(4-Chlorobenzyl)-4-hydroxy-6-(3-hydroxy-1-propynyl)-8-(trifluoromethyl)-3-quinolinecarboxamide], the IC50 came out at 15 µM.

`COc1cccc2c(O)c(C(=O)NCc3ccc(Cl)cc3)cnc12` [Example 20, N-[(4-Chlorophenyl)methyl]-4-hydroxy-8-methoxy-3-quinoline-carboxamide]: the IC50 came to 6.5 µM.

Consider `O=CCCc1cc(F)c2ncc(C(=O)NCc3ccc(Cl)cc3)c(O)c2c1` [Example 139, N-(4-Chlorobenzyl)-8-fluoro-4-hydroxy-6-(3-oxopropyl)-3-quinolinecarboxamide], for which the IC50 turned out to be 1.9 µM.

Take `COc1ccc2[nH]cc(CCNS(=O)(=O)c3cc(F)c4ncc(C(=O)NCc5ccc(Cl)cc5)c(O)c4c3)c2c1` [Example 211, N-(4-chlorobenzyl)-8-fluoro-4-hydroxy-6-({[2-(5-methoxy-1H-indol-3-yl)ethyl]amino}sulfonyl)-3-quinolinecarboxamide]: the IC50 worked out at 5.1 µM.

Turning to `NC(=S)c1ccc2c(O)c(C(=O)NCc3ccc(Cl)cc3)cnc2c1` [Example 102, 7-(Aminocarbothioyl)-N-(4-chlorobenzyl)-4-hydroxy-3-quinoline-carboxamide], the IC50 came out at 4.6 µM.

With `O=C(NCc1ccc(Cl)cc1)c1cnc2cc(Cl)ccc2c1O` [Example 56, 7-Chloro-N-((4-chlorophenyl)methyl)-4-hydroxy-3-quinoline-carboxamide], the IC50 stood at 3.1 µM.

Turning to `O=C(NCc1ccc(Cl)cc1)c1cnc2cc(S(=O)(=O)NCc3cccc4ccccc34)ccc2c1O` [Example 277, N-(4-Chlorobenzyl)-4-hydroxy-7-{[(1-naphthylmethyl)amino]-sulfonyl}-3-quinolinecarboxamide], the IC50 was 0.77 µM.

`CCSCCNS(=O)(=O)c1cc(F)c2ncc(C(=O)NCc3ccc(Cl)cc3)c(O)c2c1` [Example 251, N-(4-chlorobenzyl)-6-({[2-(ethylsulfanyl)ethyl]amino}sulfonyl)-8-fluoro-4-hydroxy-3-quinolinecarboxamide]: the IC50 was determined as 18.7 µM.

As for `COc1ccc(CNS(=O)(=O)c2cc(F)c3ncc(C(=O)NCc4ccc(Cl)cc4)c(O)c3c2)cc1` [Example 221, N-(4-chlorobenzyl)-8-fluoro-4-hydroxy-6-{[(4-methoxybenzyl)amino]sulfonyl}-3-quinolinecarboxamide], the IC50 came out at 12.5 µM.

In the case of `O=C(NCc1ccc(Cl)cc1)c1cnc2c(Cl)c(Cl)ccc2c1O` [Example 43, 7,8-Dichloro-N-[(4-chlorophenyl)methyl]-4-hydroxy-3-quinolinecarboxamide], the IC50 was 1.3 µM.

Turning to `Cc1nnc(-c2cc(F)c3ncc(C(=O)NCc4ccc(Cl)cc4)c(O)c3c2)s1` [Example 100, N-(4-Chlorobenzyl)-8-fluoro-4-hydroxy-6-(5-methyl-1,3,4-thiadiazol-2-yl)-3-quinolinecarboxamide], the IC50 was 6.7 µM.

In the case of `O=C(NCc1ccc(Cl)cc1)c1cnc2c(F)cc(/C=C\CCO)cc2c1O` [Example 104, N-(4-Chlorobenzyl)-8-fluoro-4-hydroxy-6-[(Z)-4-hydroxy-1-butenyl]-3-quinolinecarboxamide], the IC50 is below 0.78 µM.

In the case of `O=C(CN1CCOCC1)OCCCc1cc(F)c2ncc(C(=O)NCc3ccc(Cl)cc3)c(O)c2c1` [Example 147, 3-(3-([(4-Chlorobenzyl)amino]carbonyl}-8-fluoro-4-hydroxy-6-quinolinyl)propyl 2-morpholinoacetate], the IC50 was 7 µM.

As for `O=C(NCc1ccc(Cl)cc1)c1cnc2c(F)cc(S(=O)(=O)NCc3ccncc3)cc2c1O` [Example 219, N-(4-chlorobenzyl)-8-fluoro-4-hydroxy-6-{[(4-pyridinylmethyl)amino]sulfonyl}-3-quinolinecarboxamide], the IC50 is 11 µM.

Regarding `O=C(NCc1ccc(Cl)cc1)c1cc(F)c2ncc(C(=O)NCc3ccc(Cl)cc3)c(O)c2c1` [Example 185, N^3,N^6 -Bis(4-chlorobenzyl)-8-fluoro-4-hydroxy-3,6-quinolinedicarboxamide], the IC50 is 32.8 µM.

Consider `O=C(NCc1ccc(Cl)cc1)c1cnc2c(Cl)ccc(C(F)(F)F)c2c1O` [Example 59, 8-Chloro-N-((4-chlorophenyl)methyl)-4-hydroxy-5-trifluoro-methyl-3-quinolinecarboxamide], for which the IC50 amounted to 33.1 µM.

In the case of `O=C(NCc1ccc(Cl)cc1)c1cnc2c(F)cc(/C=C\CO)cc2c1O` [Example 137, N-(4-Chlorobenzyl)-8-fluoro-4-hydroxy-6-[(Z)-3-hydroxy-1-propenyl]-3-quinolinecarboxamide], the half-maximal inhibitory concentration (IC50) is 0.6 µM.

With `O=C(NCc1ccc(Cl)cc1)c1cnc2ccc(I)cc2c1O` [Example 40, N-[(4-Chlorophenyl)methyl]-4-hydroxy-6-iodo-3-quinoline-carboxamide], the IC50 is 3.5 µM.

In the case of `CCN(CCO)c1ccc2ncc(C(=O)NCc3ccc(Cl)cc3)c(O)c2c1` [Example 189, N-(4-Chlorobenzyl)-6-[ethyl(2-hydroxyethyl)amino]-4-hydroxy-3-quinolinecarboxamide], the IC50 came out at 19.4 µM.

With `O=C(NCc1ccc(Cl)cc1)c1cnc2ccc3ncsc3c2c1O` [Example 66, N-[(4-Chlorophenyl)methyl]-9-hydroxythiazolo[5,4-f]quinoline-8-carboxamide], the IC50 was 0.29 µM.

In the case of `O=C(NCc1ccc(Cl)cc1)c1cnc2c(F)cc(S(=O)(=O)NCc3cc(C(F)(F)F)cc(C(F)(F)F)c3)cc2c1O` [Example 236, 6-({[3,5-bis(trifluoromethyl)benzyl]amino}sulfonyl)-N-(4-chlorobenzyl)-8-fluoro-4-hydroxy-3-quinolinecarboxamide], the IC50 came out at 6.6 µM.

For `O=C(NCc1ccc(Cl)cc1)c1cnc2c(F)cc(CN3CCOCC3)cc2c1O` [Example 158, N-(4-Chlorobenzyl)-8-fluoro-4-hydroxy-6-(4-morpholinylmethyl)-3-quinolinecarboxamide], the IC50 is below 0.78 µM.

In the case of `N#Cc1cccc2c(O)c(C(=O)NCc3ccc(Cl)cc3)cnc12` [Example 48, N-[(4-Chlorophenyl)methyl]-8-cyano-4-hydroxy-3-quinoline-carboxamide], the IC50 is 6.5 µM.

As for `O=C(NCc1ccc(Cl)cc1)c1cnc2c(F)cc(S(=O)(=O)NCc3ccc4c(c3)OCO4)cc2c1O` [Example 212, 6-{[(1,3-benzodioxol-5-ylmethyl)amino]sulfonyl}-N-(4-chlorobenzyl)-8-fluoro-4-hydroxy-3-quinolinecarboxamide], the IC50 turned out to be 14.5 µM.

Turning to `O=C(Nc1ccccc1)OCC#Cc1cc(F)c2ncc(C(=O)NCc3ccc(Cl)cc3)c(O)c2c1` [Example 150, 3-(3-{[(4-Chlorobenzyl)amino]carbonyl}-8-fluoro-4-hydroxy-6-quinolinyl)-2-propynyl phenylcarbamate], the IC50 came out at 4.8 µM.
